Holding throughout (format): cell-based
One test has as its system Staphylococcus aureus. As to the kind of experiment: Bacterial Susceptibility Testing Methods 1 (MIC in liquid media, 96 well format). As to conditions: lowest drug concentration able to reduce growth by 80% or more, 37° C., 24 hours, read-out: MIC against Staphylococcus aureus. The source says: Compounds may be tested for antimicrobial activity by susceptibility testing in liquid media in a 96 well format. Compounds may be dissolved in dimethylsulfoxide and tested in 10 doubling dilutions in the susceptibility assays. The organisms used in the assay may be grown overnight on suitable agar media and then suspended in a liquid medium appropriate for the growth of the organism. The suspension may be adjusted to be equal to a 0.5 McFarland and a further 1 in 10 dilution may be made into the same liquid medium to prepare the final organism suspension in 100 μL. Plates may be incubated under appropriate conditions at 37° C. for 24 hours prior to reading. The Minimum Inhibitory Concentration (MIC) was determined as the lowest drug concentration able to reduce growth by 80% or more.
Compounds were evaluated against a panel of Gram-positive species, including Staphylococcus aureus, Streptococcus pneumoniae, Streptococcus pyogenes, and Enterococcus faecium. In addition, compounds were evaluated against a panel of Gram-negative species including Haemophilus influenzae, Escherichia coli and Moraxella catarrhalis.

Test [1] concerns Staphylococcus aureus (Sau) 516 cells. Nature of the test: Bacterial Susceptibility Testing Methods 2 (microbroth dilution, growth inhibition). Conditions: Staphylococcus aureus; for inhibition at 8 µg/mL: Tested Concentration 8 μg/mL, Staphylococcus aureus 516 cell growth suppressed compared to untreated sample. The source says: Compounds may be tested for antimicrobial activity by susceptibility testing using microbroth dilution methods recommended by CSLI. Compounds may be dissolved in dimethylsulfoxide and tested in 10 doubling dilutions in the susceptibility assays such that the final dimethylsulfoxide concentration in the assay is 2% (v/v). The Staphylococcus aureus (Sau) 516 cells used in the assay may be grown overnight on appropriate agar media and then suspended in the NCCLS-recommended liquid susceptibility-testing media. […] Plates may be incubated under appropriate conditions of atmosphere and temperature and for times according to NCCLS standard methods prior to being read. As used in Table 1 below, the term “inhibition” refers to the percentage of Staphylococcus aureus 516 cell growth that is suppressed (compared to an untreated sample) by the compound of the indicated example number. When tested in the above in-vitro assay, the compounds and salts of the example numbers listed below were tested at the indicated concentrations, providing the indicated inhibitions. In most instances, the highest concentrations at which the compounds were tested was 8 μg/mL. In some instances, however, compounds were tested at concentrations higher than 8 μg/mL, typically when the concentration was first measured in μM and was subsequently converted to μg/mL. In those cases in which compounds were tested at more than one concentration higher than 8 μg/mL, the concentration closest to 8 μg/mL is provided below.
Background: In broth dilution the organism is exposed to a series of concentrations in liquid medium.

The next test concerns Escherichia coli. Nature of the test: Bacterial Susceptibility Testing Methods 1 (MIC in liquid media, 96 well format). As to conditions: lowest drug concentration able to reduce growth by 80% or more, 37° C., 24 hours, read-out: MIC against Escherichia coli.

Molecules are shown by their SMILES. Values after ≈ are worked out from the molar mass of the structure shown.

As a reminder, the MIC is the smallest concentration in the dilution series that meets the test's criterion for growth inhibition. Usually inhibition stands for how much of the control response was suppressed. Higher therefore signals strong suppression.

As to `N#Cc1ccc2ccc(=O)n(CCN3CC[C@H](NCc4ccc5c(n4)NC(=O)CO5)[C@H](O)C3)c2c1` [Example 2, 1-[2-((3R,4S)-3-Hydroxy-4-{[(3-oxo-3,4-dihydro-2H-pyrido[3,2-b][1,4]oxazin-6-yl)methyl]amino}piperidin-1-yl)ethyl]-2-oxo-1,2-dihydro quino line-7-carbonitrile], the MIC worked out at 0.25 µg/mL (≈ 0.527 µM) in the test on Staphylococcus aureus and 0.5 µg/mL (≈ 1.05 µM) in the test with Escherichia coli. Also, the inhibition at 8 µg/mL in test [1] came to 100%.
In turn, `CO[C@@H]1CN(CCn2c(=O)cc(C)c3ccc(C#N)cc32)CC[C@@H]1NCc1ccc2c(n1)NC(=O)CO2` [Example 47, 1-[2-((3R,4S)-3-M ethoxy-4-{[(3-oxo-3,4-dihydro-2H-pyrido[3,2-b][1,4]oxazin-6-yl)methyl]amino}piperidin-1-yl)ethyl]-4-methyl-2-oxo-1,2-dihydroquinoline-7-carbonitrile] came in with an inhibition at 8 µg/mL in test [1] of 100%.
Take `N#Cc1ccc2ccc(=O)n(CCN3CC[C@@H](NCc4ccc5c(n4)NC(=O)CO5)[C@@H](F)C3)c2c1` [Example 50, 1-[2-((3S,4R)-3-Fluoro-4-{[(3-oxo-3,4-dihydro-2H-pyrido[3,2-b][1,4]oxazin-6-yl)methyl]amino}piperidin-1-yl)ethyl]-2-oxo-1,2-dihydro quino line-7-carbonitrile]: 14 µg/mL produced 100% inhibition in test [1] (Tested Concentration 14 μg/mL, Staphylococcus aureus 516 cell growth).
On to `CO[C@H]1CN(CCn2c(=O)cc(C)c3ccc(C#N)cc32)CC[C@H]1NCc1ccc2c(n1)NC(=O)CO2` [Example 51, 1-[2-((3S,4R)-3-Methoxy-4-{[(3-oxo-3,4-dihydro-2H-pyrido[3,2-b][1,4]oxazin-6-yl)methyl]amino}piperidin-1-yl)ethyl]-4-methyl-2-oxo-1,2-dihydro quino line-7-carbonitrile], for which the inhibition at 9 µg/mL in test [1] (Tested Concentration 9 μg/mL, Staphylococcus aureus 516 cell growth) was 100%.
With `N#Cc1ccc2ccc(=O)n(CCN3CC[C@H](NCc4ccc5c(n4)NC(=O)CO5)[C@H](F)C3)c2c1` [Example 52, 1-[2-((3R,4S)-3-fluoro-4-{[(3-oxo-3,4-dihydro-2H-pyrido[3,2-b][1,4]oxazin-6-yl)methyl]amino}piperidin-1-yl)ethyl]-2-oxo-1,2-dihydroquinoline-7-carbonitrile], in test [1] (Tested Concentration 13 μg/mL, Staphylococcus aureus 516 cell growth), the inhibition at 13 µg/mL turned out to be 100%.

The record behind these values is patent US20120270864A1, “2-QUINOLINONE AND 2-QUINOXALINONE-DERIVATIVES AND THEIR USE AS ANTIBACTERIAL AGENTS” (ASTRAZENECA AB, priority 2006, published 2012).
